Test results published in US20100121049A1, “INDENOISOQUINOLINONE ANALOGS AND METHODS OF USE THEREOF” (INOTEK PHARMACEUTICALS CORPORATION, priority 2007, published 2010).

Biological target: T1, PARP (Mus musculus, UniProt P11103)
T1 construct: PARP Activity in Cultured Macrophages, Using a Whole-Cell Based Assay; host or cells: murine RAW macrophages
Experiment: PARP activity in cultured macrophages, whole-cell based assay (3H-NAD+ incorporation after hydrogen peroxide)
Details: murine RAW macrophages; compound 1 hour prior to hydrogen peroxide (0.5 mM) for 25 minutes; PARP activity by 3H-NAD+
Procedure: Effect of Indenoisoquinolinone Analogs on PARP Activity in Cultured Macrophages, Using a Whole-Cell Based Assay
The murine RAW macrophages (ATCC, American Type Culture Collection, Manassas, Va.) were grown in RPMI […] (Invitrogen Life Technologies; Carlsbad, Calif.) medium supplemented with 10% heat-inactivated FBS, 2 mM L-glutamine, and 100 U/ml of penicillin and streptomycin. Cells, between passages 5 and 15, were seeded at a density of 250,000 cells/well in 12 well plates and allowed to grow 48 hours before use. Growth medium was changed on the day of use. Cells were treated with an Indenoisoquinolinone Analog diluted in a growth medium supplemented with 10% fetal bovine serum (FBS) for 1 hour prior to the addition of hydrogen peroxide (0.5 mM) for a further 25 minutes. For the measurement of PARP activity, media was removed and replaced with 0.5 ml of the assay buffer (56 mM HEPES-pH 7.5, 28 mM KCl, 28 mM NaCl, 2 mM MgCl2, 0.01% digitonin, and 0.5 μCi/m1 of ^3H-NAD^+) for 20 minutes. After aspirating the assay buffer, cells were lysed and transferred to eppendorf tubes containing 250 μl of 50% ice-cold trichloroacetic acid (TCA), which were then placed at 4° C. for 4 hours. Samples were centrifuged at 10,000 g for 10 minutes and supernatant removed. The pellets were washed twice with 500 μl of ice-cold 5% w/v TCA. The pellets were then solubilized in 250 μl of NaOH (0.1 M) containing 2% SDS overnight at 37° C. and the PARP activity was then determined by measuring the radioactivity incorporated using a Wallac scintillation counter. The solubilized protein (250 μl) was mixed with 5 ml of scintillation fluid (ScintiSafe Plus, Fisher Scientific) before being counted for 3 minutes. EC50 values were determined from a dose-response curve.

T1 sequence (P11103 whole entry): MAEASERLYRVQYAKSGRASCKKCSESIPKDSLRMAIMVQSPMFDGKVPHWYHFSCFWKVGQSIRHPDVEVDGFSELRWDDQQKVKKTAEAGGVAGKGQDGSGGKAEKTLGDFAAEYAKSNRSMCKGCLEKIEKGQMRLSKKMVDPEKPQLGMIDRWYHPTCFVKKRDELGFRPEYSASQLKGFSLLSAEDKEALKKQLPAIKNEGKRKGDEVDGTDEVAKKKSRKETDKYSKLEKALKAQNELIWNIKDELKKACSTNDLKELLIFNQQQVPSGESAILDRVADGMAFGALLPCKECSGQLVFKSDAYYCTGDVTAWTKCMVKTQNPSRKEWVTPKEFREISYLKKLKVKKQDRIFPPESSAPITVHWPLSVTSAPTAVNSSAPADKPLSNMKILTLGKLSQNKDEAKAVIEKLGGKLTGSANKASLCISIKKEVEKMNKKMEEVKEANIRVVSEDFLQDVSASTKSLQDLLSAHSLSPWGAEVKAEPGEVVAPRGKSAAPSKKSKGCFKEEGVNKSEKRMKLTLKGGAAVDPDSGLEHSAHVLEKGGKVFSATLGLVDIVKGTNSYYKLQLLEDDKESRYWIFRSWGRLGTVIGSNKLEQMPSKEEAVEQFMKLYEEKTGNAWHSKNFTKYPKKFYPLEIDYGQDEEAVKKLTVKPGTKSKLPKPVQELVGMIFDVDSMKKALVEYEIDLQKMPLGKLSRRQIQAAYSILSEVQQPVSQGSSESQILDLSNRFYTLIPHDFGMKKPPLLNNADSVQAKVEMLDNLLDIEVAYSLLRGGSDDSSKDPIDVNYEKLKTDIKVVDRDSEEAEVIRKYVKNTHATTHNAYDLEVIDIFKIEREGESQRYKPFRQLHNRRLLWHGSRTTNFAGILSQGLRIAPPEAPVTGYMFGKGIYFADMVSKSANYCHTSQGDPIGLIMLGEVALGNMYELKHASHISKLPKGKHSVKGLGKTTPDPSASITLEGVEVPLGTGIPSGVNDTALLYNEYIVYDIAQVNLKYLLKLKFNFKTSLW

`O=c1[nH]c2c(c3ccc(F)cc13)Cc1c(CNC3CCCC3)cccc1-2` [Va-3, 10-((cyclopentylamino)methyl)-3-fluoro-6,11-dihydro-5H-indeno[1,2-c]isoquinolin-5-one] was tested, and the EC50 was 9 nM.

With `O=c1[nH]c2c(c3cccc(F)c13)Cc1c(CNC3CCCC3)cccc1-2` [Va-4, 10-((cyclopentylamino)methyl)-4-fluoro-6,11-dihydro-5H-indeno[1,2-c]isoquinolin-5-one] the EC50 was 4 nM.

With `O=c1[nH]c2c(c3ccc(F)cc13)Cc1c(CNC3CCOCC3)cccc1-2` [Va-5, 3-fluoro-10-((tetrahydro-2H-pyran-4-ylamino)methyl)-6,11-dihydro-5H-indeno[1,2-c]isoquinolin-5-one] the EC50 was 5 nM.

`O=c1[nH]c2c(c3c(F)cccc13)Cc1c(CNC3CCCC3)cccc1-2` [Va-7, 10-((cyclopentylamino)methyl)-1-fluoro-6,11-dihydro-5H-indeno[1,2-c]isoquinolin-5-one] gave an EC50 of 5 nM.

Molecule `O=c1[nH]c2c(c3ccccc13)Cc1c(CNC3(CO)CCCC3)cc(F)cc1-2` [Va-9, 8-fluoro-10-((1-(hydroxymethyl)cyclopentylamino)methyl)-6,11-dihydro-5H-indeno[1,2-c]isoquinolin-5-one] has an EC50 of 3 nM.

`O=c1[nH]c2c(c3ccc(F)cc13)Cc1c(CNC3(CO)CCCC3)cc(F)cc1-2` [Va-10, 3,8-difluoro-10-((1-(hydroxymethyl)cyclopentylamino)methyl)-6,11-dihydro-5H-indeno[1,2-c]isoquinolin-5-one] was tested, and the EC50 was 3 nM.
